The record followed here is ChEMBL document CHEMBL1201862, “PubChem BioAssay data set” (2004).

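All cell lines were grown in 96-well plates and treated with compound for 48 hours. Here, GI50 denotes the concentration required for 50% inhibition of growth.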 Calls of active or inactive are those of the source. Rule as the data show it: active = GI50 up to about 1.1 µM and inactive = higher. Bounds are passed on as bounds.

Test systems include KM12; 786-0; UACC-62; HCT-15; NCI-H23; NCI-H522; SK-MEL-5; RPMI-8226; K562; SK-MEL-28; SK-OV-3; M14; LOX IMVI; A549; HOP-62; COLO 205; SR.
What all share (test): growth of human tumour cells (NCI), 48 h

With `O=C(CN1CCCCC1)N1CCc2c([nH]c3ccccc23)C1c1cccnc1` (stereo not given), the GI50 in the assay with KM12 was > 100 µM (inactive); with 786-0 it was > 100 µM (inactive); in the assay with UACC-62, > 100 µM (inactive); with HCT-15 it was more than 100 µM; in the assay on NCI-H23, > 100 µM (inactive); in the assay with NCI-H522, > 100 µM (inactive). Moreover, the GI50 in the assay on SK-MEL-5, in the assay on RPMI-8226, in the assay with K562, with SK-MEL-28, with SK-OV-3 and in the assay with M14 was > 100 µM (inactive) in each case. For the same molecule, the GI50 with LOX IMVI, with A549 and in the assay on HOP-62 was > 100 µM (inactive) throughout.

In the case of `COC(=O)C1=C(C)N(NC(N)=O)C(C)(O)C12CCOC2=O` (stereo not given), the GI50 with KM12 is > 100 µM (inactive); with 786-0, > 100 µM (inactive); in the assay on UACC-62, > 10 µM (inactive); with HCT-15, more than 100 µM; in the assay on NCI-H23, > 100 µM (inactive); with NCI-H522, > 100 µM (inactive). Further, the GI50 in the assay with RPMI-8226, with K562, in the assay with SK-MEL-28, in the assay on SK-OV-3, in the assay with M14 and in the assay with COLO 205 was > 100 µM (inactive) throughout. For the same molecule, the GI50 with LOX IMVI, in the assay with A549 and in the assay with HOP-62 was > 100 µM (inactive) each time.

Regarding `CC12CCC(C)(c3cc(O)c(O)cc31)c1cc(O)c(O)cc12`, the GI50 in the assay with KM12 is 17.1 µM (inactive); with 786-0 it was 14.7 µM (inactive); in the assay with UACC-62 it was 17.3 µM (inactive); with HCT-15, 13.7 µM; with NCI-H23, 27 µM (inactive); in the assay with NCI-H522, 2.29 µM (inactive). The GI50 in the assay on SK-MEL-5 is 17.7 µM (inactive); in the assay on RPMI-8226, 8.51 µM (inactive); in the assay with K562 it was 7.06 µM (inactive); in the assay on SK-MEL-28, 16.4 µM (inactive); in the assay with SK-OV-3, 19.2 µM (inactive); in the assay with M14, 17.2 µM (inactive). Also, the GI50 is 16.5 µM (inactive) in the assay with COLO 205, 16.4 µM (inactive) in the assay with LOX IMVI, 29.6 µM (inactive) with A549 and 26.7 µM (inactive) with HOP-62.

Take `O=C1CCCCC/C=C2/CC[C@H](Sc3ccccc3)[C@@H]12`: the GI50 with KM12 was 87.1 µM (inactive); in the assay on 786-0 it was > 100 µM (inactive); with UACC-62, > 100 µM (inactive); with HCT-15, more than 100 µM; in the assay with NCI-H23, 83 µM (inactive); with SK-MEL-5, > 100 µM (inactive). Also, the GI50 was > 100 µM (inactive) in the assay on RPMI-8226; 55.2 µM (inactive) with SR; > 100 µM (inactive) in the assay with K562; > 100 µM (inactive) with SK-MEL-28; 82.2 µM (inactive) in the assay on SK-OV-3; > 100 µM (inactive) with M14. Moreover, the GI50 in the assay on COLO 205 is > 100 µM (inactive); with LOX IMVI, 43 µM (inactive); with A549, 34.3 µM (inactive); in the assay on HOP-62 it was 37.3 µM (inactive).

Take `Cn1nc(-c2ccccc2)c(C(=O)/C=C/c2ccc(Cl)cc2)c(N2CCCCC2)c1=O`: the GI50 with 786-0 was 1.69 µM (inactive); in the assay with UACC-62 it was 2.2 µM (inactive); in the assay with HCT-15 it was 2.98 µM; with NCI-H23 it was 2.19 µM (inactive); with NCI-H522, 1.85 µM (inactive); with SK-MEL-5, 1.95 µM (inactive). Also, the GI50 is 2.05 µM (inactive) in the assay on RPMI-8226; 2.04 µM (inactive) with K562; 3.78 µM (inactive) in the assay with SK-MEL-28; 3.52 µM (inactive) in the assay on SK-OV-3; 3.15 µM (inactive) in the assay on M14; 2.23 µM (inactive) in the assay with COLO 205. Besides, the results for the GI50 in the assay with LOX IMVI, with A549 and with HOP-62 were 2.41 µM (inactive), 2.92 µM (inactive) and 2.37 µM (inactive), respectively.

`C=C1C(=O)OC2C1CC[C@H](C)C1(O)C(O)CC(=O)[C@@]21C` (stereo not given in full): the GI50 with KM12 was 17.3 µM (inactive); with 786-0, 24.2 µM (inactive); with UACC-62, 12.7 µM (inactive); with NCI-H23 it was 18.7 µM (inactive); in the assay on SK-MEL-5, 16.7 µM (inactive); with RPMI-8226, 22.1 µM (inactive). Moreover, the GI50 in the assay with SR is 17.1 µM (inactive); in the assay with K562 it was 14.3 µM (inactive); with SK-MEL-28, 13.6 µM (inactive); with SK-OV-3, 24.9 µM (inactive); with COLO 205, 16.3 µM (inactive); in the assay with A549 it was 31 µM (inactive).

On to `N/N=C1/C(=O)N(c2ccc(Cl)cc2)C(=O)C(=O)C1c1nc2ccccc2s1` (stereo not given), for which the GI50 in the assay with KM12 is > 100 µM (inactive); with 786-0 it was > 100 µM (inactive); in the assay with UACC-62, > 100 µM (inactive); in the assay on HCT-15, 72.1 µM; in the assay on NCI-H23, > 100 µM (inactive); in the assay with NCI-H522, > 100 µM (inactive). Moreover, the GI50 was > 100 µM (inactive) in the assay with SK-MEL-5; > 100 µM (inactive) with RPMI-8226; 60.3 µM (inactive) in the assay on K562; > 100 µM (inactive) in the assay with SK-MEL-28; > 100 µM (inactive) with SK-OV-3; > 100 µM (inactive) in the assay with M14. The GI50 in the assay with COLO 205, in the assay on LOX IMVI, in the assay with A549 and with HOP-62 was > 100 µM (inactive) throughout.

On to `CC1(O)CC2C(CC1SCCO)C2(C)C` (stereo not given), for which the GI50 with KM12 is > 100 µM (inactive); in the assay on 786-0, > 100 µM (inactive); in the assay with HCT-15, more than 100 µM; with NCI-H23 it was > 100 µM (inactive); in the assay on SK-MEL-5, > 100 µM (inactive); in the assay on RPMI-8226, > 100 µM (inactive). For the same molecule, the GI50 in the assay with K562, in the assay on SK-MEL-28, in the assay on SK-OV-3, in the assay with M14, with COLO 205 and with A549 was > 100 µM (inactive) in each case.

For `COc1ccccc1NC(=O)C1=C(C)NC(C)=C(C(=O)Nc2ccccc2OC)C1c1ccccc1F`, the GI50 in the assay on KM12 was 66.7 µM (inactive); in the assay with 786-0, > 100 µM (inactive); with UACC-62, 81.7 µM (inactive); with HCT-15 it was 98.6 µM; in the assay on NCI-H23 it was > 100 µM (inactive); with SK-MEL-5, 41.6 µM (inactive). For the same molecule, the GI50 is 62.1 µM (inactive) in the assay with RPMI-8226; 64.7 µM (inactive) in the assay on SR; 36.2 µM (inactive) in the assay with K562; > 100 µM (inactive) in the assay with SK-MEL-28; > 100 µM (inactive) in the assay on SK-OV-3; > 100 µM (inactive) in the assay on M14. Besides, the GI50 in the assay on COLO 205 was > 100 µM (inactive); in the assay with LOX IMVI it was > 100 µM (inactive); with A549, 57.4 µM (inactive); in the assay on HOP-62, > 100 µM (inactive).

On to `c1ccc(OCCSCCCCCCCCCCSCCOc2ccccc2)cc1`, for which the GI50 with KM12 was > 100 µM (inactive); in the assay with 786-0 it was 50.4 µM (inactive); with UACC-62, > 100 µM (inactive); with HCT-15, more than 100 µM; with NCI-H23 it was > 100 µM (inactive); with NCI-H522 it was > 100 µM (inactive). Also, the GI50 in the assay with SK-MEL-5 was 28.9 µM (inactive); in the assay on RPMI-8226, > 100 µM (inactive); in the assay on K562, > 100 µM (inactive); in the assay on SK-MEL-28, > 100 µM (inactive); in the assay with SK-OV-3 it was > 100 µM (inactive); with M14, > 100 µM (inactive). In addition, the GI50 with COLO 205 is > 100 µM (inactive); in the assay on LOX IMVI, > 100 µM (inactive); with A549, 31.6 µM (inactive); in the assay with HOP-62 it was 24.7 µM (inactive).

As to `CC(C)=CC1CCc2ccccc2N1S(=O)(=O)c1ccc(C)cc1` (stereo not given), the GI50 with KM12 is 0.624 µM (active); with 786-0 it was 2.35 µM (inactive); with UACC-62 it was 0.982 µM (active); in the assay with HCT-15, 1.09 µM; in the assay on NCI-H23 it was 1.4 µM (inactive); with NCI-H522, 1.52 µM (inactive). Also, the GI50 with SK-MEL-5 was 0.589 µM (active); in the assay with RPMI-8226, 1.32 µM (inactive); in the assay with K562, 0.59 µM (active); in the assay on SK-MEL-28 it was 1.96 µM (inactive); in the assay on SK-OV-3, 1.7 µM (inactive); in the assay with M14, 1.27 µM (inactive). Besides, the GI50 is 1.06 µM (active) in the assay with COLO 205, 1.68 µM (inactive) in the assay on LOX IMVI, 1.22 µM (inactive) in the assay with A549 and 2.57 µM (inactive) with HOP-62.

With `Cc1c(C(=O)/C=C/c2ccccc2Cl)[n+]([O-])c2ccccc2[n+]1[O-]`, the GI50 in the assay with KM12 was 14.3 µM (inactive); in the assay on 786-0 it was 12.6 µM (inactive); in the assay on HCT-15 it was 10.1 µM; with NCI-H23, 14.5 µM (inactive); with NCI-H522, 11.2 µM (inactive); with SK-MEL-5 it was 18 µM (inactive). Further, the GI50 in the assay with RPMI-8226 was 11.9 µM (inactive); in the assay with SR it was 16.6 µM (inactive); in the assay on K562 it was 5.53 µM (inactive); in the assay on SK-MEL-28, 16.6 µM (inactive); with SK-OV-3, 20.4 µM (inactive); with M14, 15.2 µM (inactive). The GI50 in the assay with COLO 205 was 15.5 µM (inactive); in the assay on A549, 15.9 µM (inactive); in the assay with HOP-62, 19.9 µM (inactive).

`[O-][S+]1c2ccc(Cl)cc2CC(SSC2Cc3cc(Cl)ccc3[S+]([O-])c3ccccc32)c2ccccc21` (stereo not given): the GI50 in the assay with KM12, in the assay on 786-0, in the assay with UACC-62, in the assay with NCI-H23, with NCI-H522 and in the assay with SK-MEL-5 was > 100 µM (inactive) in each case. Besides, the GI50 in the assay on RPMI-8226, in the assay with K562, in the assay with SK-MEL-28, in the assay on SK-OV-3, in the assay on M14 and in the assay with COLO 205 was > 100 µM (inactive) in each case. Besides, the GI50 with LOX IMVI, in the assay on A549 and with HOP-62 was > 100 µM (inactive) each time.
